Data on 25 molecules can be found in patent publication US10202339B2, “Therapeutic compounds and compositions” (AGIOS PHARMACEUTICALS, INC., priority 2012, dated 2019).

Chain of IDH2 R140Q (P48735 40-452 R140Q): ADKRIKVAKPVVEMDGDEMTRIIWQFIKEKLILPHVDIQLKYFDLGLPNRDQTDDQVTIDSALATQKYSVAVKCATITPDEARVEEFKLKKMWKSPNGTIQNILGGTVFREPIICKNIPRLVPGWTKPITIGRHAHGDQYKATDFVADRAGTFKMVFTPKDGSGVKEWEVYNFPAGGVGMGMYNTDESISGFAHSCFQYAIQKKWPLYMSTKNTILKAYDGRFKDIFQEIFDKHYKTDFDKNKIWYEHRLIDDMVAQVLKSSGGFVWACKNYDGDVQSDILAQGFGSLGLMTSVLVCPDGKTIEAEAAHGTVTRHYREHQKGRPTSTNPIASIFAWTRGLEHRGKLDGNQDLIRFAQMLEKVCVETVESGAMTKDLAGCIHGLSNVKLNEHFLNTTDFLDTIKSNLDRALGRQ

This assay has as its target IDH2 R140Q (Homo sapiens (Human), UniProt P48735, R140Q). In words: IDH2 R140Q enzymatic cofactor depletion assay (diaphorase/resazurin). It is filed as biochemical. As to conditions: IDH2 R140Q enzyme, one hour preincubation with compound, one hour reaction; read-out: Enz R140Q. A digest of the protocol:
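Enzyme preincubated with compound 1 h at room temperature, then reaction started with 50 μM NADPH and 6.3 mM α-KG and run 1 h at room temperature. Remaining NADPH measured by diaphorase (36 μg/ml)/resazurin (60 μM) stop mix, fluorescence read at Ex544/Em590 after 1 min.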
For orientation: Alamar Blue is a resazurin reagent that responds to reducing activity.
As for `CC(C)Oc1ccc(S(=O)(=O)NCC(F)(F)F)cc1NC(=O)Nc1cccc(C(F)(F)F)c1` [Compound 185, 4-isopropoxy-N-(2,2,2-trifluoroethyl)-3-(3-(3-(trifluoromethyl)phenyl)ureido)benzenesulfonamide], the IC50 fell in the range of 100 to 1000 nM.
Regarding `O=C(Nc1cccc(C(F)(F)F)c1)Nc1cc(S(=O)(=O)NCC(F)(F)F)ccc1Oc1cccnc1` [Compound 186, 4-(pyridin-3-yloxy)-N-(2,2,2-trifluoroethyl)-3-(3-(3-(trifluoromethyl)phenyl)ureido)benzenesulfonamide], the IC50 lay within 100 to 1000 nM.
The result for `O=C(Nc1ncc(Cl)s1)Nc1cc(S(=O)(=O)NCC(F)(F)F)ccc1OCC1CC1` [Compound 187, 3-(3-(5-chlorothiazol-2-yl)ureido)-4-(cyclopropylmethoxy)-N-(2,2,2-trifluoroethyl)benzenesulfonamide] reads 100 to 1000 nM; that for `O=C(Nc1ccc(F)cc1F)Nc1cc(S(=O)(=O)NCC(F)(F)F)ccc1OCC1CC1` [Compound 188, 4-(cyclopropylmethoxy)-3-(3-(2,4-difluorophenyl)ureido)-N-(2,2,2-trifluoroethyl)benzenesulfonamide], 100 to 1000 nM.
In the case of `O=C(Nc1cc(C(F)(F)F)ccn1)Nc1cc(S(=O)(=O)NCC(F)(F)F)ccc1OCC1CC1` [Compound 189, 4-(cyclopropylmethoxy)-N-(2,2,2-trifluoroethyl)-3-(3-(4-(trifluoromethyl)pyridin-2-yl)ureido)benzene sulfonamide] it was 100 to 1000 nM; in that of `CCOc1ccc(S(=O)(=O)NCC(F)(F)F)cc1NC(=O)Nc1cc(C(F)(F)F)ccn1` [Compound 190, 4-ethoxy-N-(2,2,2-trifluoroethyl)-3-(3-(4-(trifluoromethyl)pyridin-2-yl)ureido)benzenesulfonamide], 100 to 1000 nM; in that of `CCOc1ccc(S(=O)(=O)NCC(F)(F)F)cc1NC(=O)Nc1ncc(Cl)s1` [Compound 191, 3-(3-(5-chlorothiazol-2-yl)ureido)-4-ethoxy-N-(2,2,2-trifluoroethyl)benzenesulfonamide], 100 to 1000 nM.
In the case of `O=C(Nc1cccc(C(F)(F)F)c1)Nc1cc(S(=O)(=O)Nc2ccccc2)ccc1Oc1ccccc1` [Compound 192, 4-phenoxy-N-phenyl-3-(3-(3-(trifluoromethyl)phenyl)ureido)benzenesulfonamide] it was 100 to 1000 nM; in that of `O=C(Nc1cccc(C(F)(F)F)c1)Nc1cc(S(=O)(=O)NC2CC2)ccc1OCc1ccccc1` [Compound 193], 1000 to 10000 nM.
`CC[S+]([O-])c1ccc(S(=O)(=O)NCC(F)(F)F)cc1NC(=O)Nc1cccc(C(F)(F)F)c1` (stereo not shown) [Compound 195, 4-(ethylsulfinyl)-N-(2,2,2-trifluoroethyl)-3-(3-(3-(trifluoromethyl)phenyl)ureido)benzenesulfonamide]: the IC50 was 100 to 1000 nM.
The result for `CCS(=O)(=O)c1ccc(S(=O)(=O)NCC(F)(F)F)cc1NC(=O)Nc1cccc(C(F)(F)F)c1` [Compound 196, 4-(ethylsulfonyl)-N-(2,2,2-trifluoroethyl)-3-(3-(3-(trifluoromethyl)phenyl)ureido)benzenesulfonamide] reads less than 100 nM; that for `O=C(Nc1cccc(C(F)(F)F)c1)Nc1cc(S(=O)(=O)NCC(F)(F)F)cnc1OCC1CC1` [Compound 197, 6-(cyclopropylmethoxy)-N-(2,2,2-trifluoroethyl)-5-(3-(3-(trifluoromethyl)phenyl)ureido)pyridine-3-sulfonamide], less than 100 nM; that for `O=C(Nc1cccc(C(F)(F)F)c1)Nc1cc(S(=O)(=O)NC2COC2)cnc1OCC1CC1` [Compound 198, 6-(cyclopropylmethoxy)-N-(oxetan-3-yl)-5-(3-(3-(trifluoromethyl)phenyl)ureido)pyridine-3-sulfonamide], 100 to 1000 nM.
In the case of `CCOc1ncc(S(=O)(=O)NC2COC2)cc1NC(=O)Nc1cccc(C(F)(F)F)c1` [Compound 199, 6-ethoxy-N-(oxetan-3-yl)-5-(3-(3-(trifluoromethyl)phenyl)ureido)pyridine-3-sulfonamide] it was 100 to 1000 nM; in that of `N#CC1(NS(=O)(=O)c2cnc(OCC3CC3)c(NC(=O)Nc3cccc(C(F)(F)F)c3)c2)CC1` [Compound 200, N-(1-cyanocyclopropyl)-6-(cyclopropylmethoxy)-5-(3-(3-(trifluoromethyl)phenyl)ureido)pyridine-3-sulfonamide], 1000 to 10000 nM; in that of `O=C(Nc1cccc(C(F)(F)F)c1)Nc1cc(S(=O)(=O)NCC(F)(F)F)cnc1OCC1CCOC1` (stereo not shown) [Compound 201, 6-((tetrahydrofuran-3-yl)methoxy)-N-(2,2,2-trifluoroethyl)-5-(3-(3-(trifluoromethyl)phenyl)ureido)pyridine-3-sulfonamide], 100 to 1000 nM.
The result for `CCOc1ncc(S(=O)(=O)NCC(F)(F)F)cc1NC(=O)Nc1cc(C(F)(F)F)ccn1` [Compound 202, 6-ethoxy-N-(2,2,2-trifluoroethyl)-5-(3-(4-(trifluoromethyl)pyridine-2-yl)ureido)pyridine-3-sulfonamide] reads 100 to 1000 nM.
For the molecule `O=C(Nc1cccc(C(F)(F)F)c1)Nc1cc(S(=O)(=O)NCC(F)(F)F)cnc1N1CCOCC1` [Compound 203, 6-morpholino-N-(2,2,2-trifluoroethyl)-5-(3-(3-(trifluoromethyl)phenyl)ureido)pyridine-3-sulfonamide], the IC50 lay within 100 to 1000 nM.
The result for `O=C(Nc1cccc(C(F)(F)F)c1)Nc1cc(S(=O)(=O)NCC(F)(F)F)cnc1NCC1CC1` [Compound 204, 6-((cyclopropylmethyl)amino)-N-(2,2,2-trifluoroethyl)-5-(3-(3-(trifluoromethyl)phenyl)ureido)pyridine-3-sulfonamide] reads 1000 to 10000 nM; that for `O=C(Nc1cccc(S(=O)(=O)NCC(F)(F)F)c1)Nc1cc(C(F)(F)F)ccn1` [Compound 337, N-(2,2,2-trifluoroethyl)-3-(3-(4-(trifluoromethyl)pyridin-2-yl)ureido)benzenesulfonamide], 100 to 1000 nM; that for `C#Cc1ccc(S(=O)(=O)NCC(F)(F)F)cc1NC(=O)Nc1cccc(C(F)(F)F)c1` [Compound 338, 4-ethynyl-N-(2,2,2-trifluoroethyl)-3-(3-(3-(trifluoromethyl)phenyl)ureido)benzenesulfonamide], 100 to 1000 nM.
The result for `CCc1ccc(S(=O)(=O)NCC(F)(F)F)cc1NC(=O)Nc1cccc(C(F)(F)F)c1` [Compound 339, 4-ethyl-N-(2,2,2-trifluoroethyl)-3-(3-(3-(trifluoromethyl)phenyl)ureido)benzenesulfonamide] reads 100 to 1000 nM.
In the case of `O=C(Nc1cccc(C(F)(F)F)c1)Nc1cc(S(=O)(=O)Nc2ccccc2)ccc1Nc1ccccc1` [Compound 340, N-phenyl-4-(phenylamino)-3-(3-(3-(trifluoromethyl)phenyl)ureido)benzenesulfonamide] it was 1000 to 10000 nM; in that of `CN(c1ccccc1)c1ccc(S(=O)(=O)Nc2ccccc2)cc1NC(=O)Nc1cccc(C(F)(F)F)c1` [Compound 341, 4-(methyl(phenyl)amino)-N-phenyl-3-(3-(3-(trifluoromethyl)phenyl)ureido)benzenesulfonamide], 1000 to 10000 nM; in that of `O=C(Nc1cccc(C(F)(F)F)c1)Nc1cc(S(=O)(=O)Nc2ccccc2)ccc1-n1ccnc1` [Compound 342, 4-(1H-imidazol-1-yl)-N-phenyl-3-(3-(3-(trifluoromethyl)phenyl)ureido)benzenesulfonamide], 100 to 1000 nM.
